Measured values taken from EP2439195B1, “NAPHTHALENE CARBOXAMIDE DERIVATIVES AS INHIBITORS OF PROTEIN KINASE AND HISTONE DEACETYLASE, PREPARATION METHODS AND USES THEREOF” (Shenzhen Chipscreen Biosciences, Ltd., priority 2009, dated 2010).

Columns and labels:
Format in all cases: in vivo
human A549 lung cancer = assay: Nude mice tumor transplanted from human A549 lung cancer (Example 51); details: for TGI (%): tumor growth inhibition
Experimental: Then the cultured A549 human lung cancer cells were implanted into the armpit of 50 mice. […] Each group had 8 mice. One group was treated with vehicle. One group was treated with Sutent, the positive control drug. […] Each group was dosed orally once a day for 24 days. Tumor volumes along with body weights were recorded twice per week. On the next day after 24 doses, the mice were killed, and tumors were weighed. The tumor growth inhibition of each group was calculated using the following formula: {[(the average tumor weight of control group)-(the average tumor weight of test group)]/(the average tumor weight of control group)}×100%.

human HCT-8 colon cancer [1] = assay: Nude mice tumor transplanted from human HCT-8 colon cancer (Example 52); details: for Tumor weight: killed after 20 doses; for TGI (%): tumor growth inhibition
Experimental: Female nu/nu mice of 18∼20g were fed by normal diet for 3 days. Then the cultured HCT-8 human colon cancer cells were implanted into the armpit of 50 mice. […] Each group had 8 mice. One group was treated with vehicle. One group was treated with Sutent, the positive control drug. […] Each group was dosed orally once a day for 24 days. Tumor volumes along with body weights were recorded twice per week. On the next day after 20 doses, the mice were killed, and tumors were weighed. The tumor growth inhibition of each group was calculated using the following formula: {[([…])} × 100%. [formula] The experimental results are shown in Table 6 and Figure 2.

human HCT-8 colon cancer [2] = assay: Nude mice tumor transplanted from human HCT-8 colon cancer (Example 54); details: for TGI (%): tumor growth inhibition
Experimental: (§1) Female nu/nu mice of 18∼20g were fed by normal diet for 3 days. Then the cultured HCT-8 human colon cancer cells were implanted into the armpit of 50 mice. […] Each group had 8 mice. One group was treated with vehicle. One group was treated with Sutent, the positive control drug. Two groups were treated with compound 33 at different concentrations. The other two groups were treated with compound 34 at different concentrations. Each group was dosed orally once a day for 20 days. […] The tumor growth inhibition of each group was calculated using the following formula: {[(the average tumor weight of control group)-(the average tumor weight of test group)]/(the average tumor weight of control group)} × 100%. [formula] The experimental results are shown in Table 8 and Figure 4.

human HCT-8 colon cancer [3] = assay: Nude mice tumor transplanted from human HCT-8 colon cancer (Example 55); details: 20 days; for TGI (%): tumor growth inhibition
Experimental: Female nu/nu mice of 18∼20g were fed by normal diet for 3 days. Then the cultured HCT-8 human colon cancer cells were implanted into the armpit of 50 mice. […] One group was treated with vehicle. One group was treated with Sutent, the positive control drug. Two groups were treated with compound 33 at different concentrations. The other two groups were treated with compound 37 at different concentrations. Compound 33 was administered twice a day with an interval of 6 hours. For other groups, administration was performed once a day. Each group was dosed orally for 20 days. […] The tumor growth inhibition of each group was calculated using the following formula: {[(the average tumor weight of control group)-(the average tumor weight of test group)]/(the average tumor weight of control group)} × 100%. [formula] The experimental results are shown in Table 9 and Figure 5.

[4] = test system: human SSMC7721 liver cancer; assay: Nude mice tumor transplanted from human SSMC7721 liver cancer (Example 56); details: for TGI (%): tumor growth inhibition
Experimental: as §1, with “cultured SSMC7721” for “cultured HCT-8”, “human liver” for “human colon”, “compound 37” for “compound 34”, “for 30” for “for 20”, “Table 10” for “Table 8”, “Figure 6. Table10” for “Figure 4.”

[5] = 5 mg/kg orally once a day for 24 days
[6] = 10 mg/kg orally once a day for 24 days
[7] = 20 mg/kg orally once a day for 24 days
[8] = 40 mg/kg orally once a day for 24 days
[9] = 30 mg/kg orally once a day for 20 days
[10] = 60 mg/kg orally once a day for 20 days
[11] = 30x2 mg/kg orally twice a day with an interval of 6 hours
[12] = 60x2 mg/kg orally twice a day with an interval of 6 hours
[13] = 30 mg/kg orally once a day for 30 days
[14] = 60 mg/kg orally once a day for 30 days

Compound: COc1ccc2c(Oc3ccc4c(C(=O)Nc5ccccc5N)cccc4c3)ccnc2c1 [Compound 31, N-(2-aminophenyl)-6-(7-methoxyquinolin-4-yloxy)-1-naphthamide]
- Tumor weight (human A549 lung cancer; [5]): 2.20 ± 0.57 g
- Body weight (g) end (human A549 lung cancer; [5]): 24.6 ± 1.3 g
- Body weight (g) start (human A549 lung cancer; [5]): 21.1 ± 0.6 g
- Tumor weight (human A549 lung cancer; [6]): 2.13 ± 0.51 g
- Body weight (g) end (human A549 lung cancer; [6]): 25.1 ± 1.3 g
- Body weight (g) start (human A549 lung cancer; [6]): 19.9 ± 1.3 g
- Tumor weight (human A549 lung cancer; [7]): 1.50 ± 0.41 g
- Body weight (g) end (human A549 lung cancer; [7]): 24.2 ± 0.7 g
- Body weight (g) start (human A549 lung cancer; [7]): 20.6 ± 1.1 g
- TGI (%) (human A549 lung cancer; [7]): 64.3%
- Tumor weight (human A549 lung cancer; [8]): 1.06 ± 0.54 g
- Body weight (g) end (human A549 lung cancer; [8]): 22.6 ± 2.4 g
- Body weight (g) start (human A549 lung cancer; [8]): 20.0 ± 0.9 g
- TGI (%) (human A549 lung cancer; [8]): 74.8%
- Body weight (g) end (human HCT-8 colon cancer [1]; 2.5 mg/kg orally once a day): 24.5 ± 1.1 g
- Tumor weight (human HCT-8 colon cancer [1]; 2.5 mg/kg orally once a day): 2.18 ± 1.28 g
- Body weight (g) start (human HCT-8 colon cancer [1]; 2.5 mg/kg orally once a day): 20.3 ± 0.8 g
- TGI (%) (human HCT-8 colon cancer [1]; 2.5 mg/kg orally once a day): 54.5%
- Body weight (g) end (human HCT-8 colon cancer [1]; 5 mg/kg orally once a day): 24.8 ± 1.5 g
- Tumor weight (human HCT-8 colon cancer [1]; 5 mg/kg orally once a day): 0.78 ± 0.25 g
- Body weight (g) start (human HCT-8 colon cancer [1]; 5 mg/kg orally once a day): 21.6 ± 1.4 g
- TGI (%) (human HCT-8 colon cancer [1]; 5 mg/kg orally once a day): 83.8%
- Body weight (g) end (human HCT-8 colon cancer [1]; 10 mg/kg orally once a day): 23.7 ± 0.8 g
- Tumor weight (human HCT-8 colon cancer [1]; 10 mg/kg orally once a day): 0.46 ± 0.15 g
- Body weight (g) start (human HCT-8 colon cancer [1]; 10 mg/kg orally once a day): 20.7 ± 1.1 g
- TGI (%) (human HCT-8 colon cancer [1]; 10 mg/kg orally once a day): 90.3%
- Body weight (g) end (human HCT-8 colon cancer [1]; 20 mg/kg orally once a day): 22.5 ± 1.6 g
- Tumor weight (human HCT-8 colon cancer [1]; 20 mg/kg orally once a day): 0.19 ± 0.06 g
- Body weight (g) start (human HCT-8 colon cancer [1]; 20 mg/kg orally once a day): 20.5 ± 1.3 g
- TGI (%) (human HCT-8 colon cancer [1]; 20 mg/kg orally once a day): 96.1%

Compound: COc1ccc2c(Oc3ccc4c(C(=O)NCc5ccc(C(=O)Nc6ccccc6N)cc5)cccc4c3)ccnc2c1 [Compound 33, N-(4-((2-aminophenyl)carbamoyl)benzyl)-6-(7-methoxyquinolin-4-yloxy)-1-naphthamide]
- Tumor weight (human HCT-8 colon cancer [2]; [9]): 2.31 ± 0.43 g
- Body weight (g) end (human HCT-8 colon cancer [2]; [9]): 21.1 ± 2.2 g
- Body weight (g) start (human HCT-8 colon cancer [2]; [9]): 19.0 ± 1.3 g
- TGI (%) (human HCT-8 colon cancer [2]; [9]): 43.3%
- Tumor weight (human HCT-8 colon cancer [2]; [10]): 1.98 ± 0.61 g
- Body weight (g) end (human HCT-8 colon cancer [2]; [10]): 21.4 ± 1.5 g
- Body weight (g) start (human HCT-8 colon cancer [2]; [10]): 19.4 ± 0.8 g
- TGI (%) (human HCT-8 colon cancer [2]; [10]): 51.5%
- Tumor weight (human HCT-8 colon cancer [3]; [11]): 0.73 ± 0.36 g
- Body weight (g) end (human HCT-8 colon cancer [3]; [11]): 22.6 ± 1.6 g
- Body weight (g) start (human HCT-8 colon cancer [3]; [11]): 21.1 ± 1.2 g
- TGI (%) (human HCT-8 colon cancer [3]; [11]): 88.1%
- Tumor weight (human HCT-8 colon cancer [3]; [12]): 0.45 ± 0.05 g
- Body weight (g) end (human HCT-8 colon cancer [3]; [12]): 19.0 ± 1.8 g
- Body weight (g) start (human HCT-8 colon cancer [3]; [12]): 20.1 ± 0.9 g
- TGI (%) (human HCT-8 colon cancer [3]; [12]): 92.6%
- Tumor weight [4, 13]: 1.63 ± 0.47 g
- Body weight (g) end [4, 13]: 24.0 ± 1.7 g
- Body weight (g) start [4, 13]: 20.8 ± 0.5 g
- TGI (%) [4, 13]: 27.8%
- Tumor weight [4, 14]: 1.48 ± 0.89 g
- Body weight (g) end [4, 14]: 25.4 ± 2.8 g
- Body weight (g) start [4, 14]: 21.4 ± 1.3 g
- TGI (%) [4, 14]: 34.4%
